Common to all, as to format: cell-based
One assay concerns DENV2 replicon. In words: DENV-2 Huh-7 Rep EC50 (replicon luminescence). The conditions noted are these: Dengue virus, DENV2, Huh-7, 48 h. The gist of the method: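 EC50 derived from luminescence dose-response, normalised to DMSO-only 0% inhibition wells, after 1.5 h with EnduRen substrate. Compounds were first exposed for 48 h at 37° C to DENV2 replicon Huh-7 cells (5,000/well).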

The subject of another assay is RSV A2. The assay is described as follows: RSV NHBE EC50 (RSV A2 antiviral assay in NHBE cells). The following applies: read-out: RSV NHBE EC50. In short, it runs like this: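 Antiviral protection in primary bronchial epithelial cells: RSV A2 (1×10^4.5 tissue culture infectious doses/mL) added right after compound, in 3-fold dilutions at 0.05% DMSO, to 7,500 attached cells per well. Cytopathic loss quantified as CellTiter-Glo luminescence after 4-day incubation at 37 °C.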

Another assay concerns HCV Rep 2A. The assay is described as follows: HCV Rep 2A EC50 (replicon luciferase). Here is the method: (§1) Compounds were serially diluted in ten steps of 1:3 dilutions in 384-well plates. All serial dilutions were performed in four replicates per compound within the same 384-well plate. […] To each well of a black polystyrene 384-well plate (Greiner Bio-one, Monroe, NC), 90 μL of cell culture medium (without Geneticin) containing 2000 suspended HCV replicon cells was added with a Biotek μFlow workstation. For compound transfer into cell culture plates, 0.4 μL of compound solution from the compound serial dilution plate was transferred to the cell culture plate on a Biomek FX workstation. The DMSO concentration in the final assay wells was 0.44%. The plates were incubated for 3 days at 37° C. with 5% CO2 and 85% humidity. The HCV replicon assay was a multiplex assay, able to assess both cytotoxicity and antireplicon activity from the same well. The CC50 assay was performed first. The media in the 384-well cell culture plate was aspirated, and the wells were washed four times with 100 μL of PBS each, using a Biotek ELX405 plate washer. A volume of 50 μL of a solution containing 400 nM calcein AM (Anaspec, Fremont, CA) in 1×PBS was added to each well of the plate with a Biotek μFlow workstation. The plate was incubated for 30 min at room temperature before the fluorescence signal (excitation 490 nm, emission 520 nm) was measured with a Perkin-Elmer Envision plate reader. The EC50 assay was performed in the same wells as the CC50 assay. The calcein-PBS solution in the 384-well cell culture plate was aspirated with a Biotek ELX405 plate washer. A volume of 20 μL of Dual-Glo luciferase buffer (Promega, Madison, WI) was added to each well of the plate with a Biotek μFlow Workstation. The plate was incubated for 10 min at room temperature. A volume of 20 μL of a solution containing a 1:100 mixture of Dual-Glo Stop & Glo substrate (Promega, Madison, WI) and Dual-Glo Stop & Glo buffer (Promega, Madison, WI) was added to each well of the plate with a Biotek μFlow Workstation. The plate was then incubated at room temperature for 10 min before the luminescence signal was measured with a Perkin-Elmer Envision Plate Reader.

The test system of a further assay is RSV strain A2. In words: microbe, parasite or virus in culture. The conditions noted are these: Table 3, HEp-2 cells, RSV A2, 4 days, read-out: RSV HEp-2 EC50. The gist of the method:
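Cytopathic-effect protection assay: HEp-2 cells (50,000/mL) infected with pre-titered RSV A2 onto 3-fold serial compound dilutions, incubated 4 days at 37° C. Cell viability read by CellTiter-Glo luminescence; percent inhibition derived against 0% and 100% virus-inhibition controls.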

The next assay relates to HCV Rep 1B. The assay is described as follows: HCV Rep 1B EC50 (replicon luciferase). Here is the method: as §1
For assay [1], the system named is Dengue serotype 2 New Guinea C (NGC) strain. The assay is described as follows: DENV-2 Huh-7 EC50 (qPCR in Huh7 cells). The conditions noted are these: Dengue virus, Huh-7; Table 5 comparative activity, 2',3'-OH vs -OC(O)iPr; read-out: DENV Huh7 EC50. Here is the method: Huh7 (Human hepatocarcinoma 7) cells were maintained in 10% FCS-containing DMEM complete media. On the day of the assay, cells were trypsinized (0.1% Trypsin-EDTA), washed and infected for 2 hours in serum-free DMEM with Dengue serotype 2 New Guinea C (NGC) strain at MOI=0.1 with gentle agitation at 37° C. After 2 hours, cells were washed with serum-free media and suspended in 10% FCS-containing DMEM (Gibco, supplemented with sodium pyruvate, NEAA, Penicillin-Streptomycin). 10^5 cells were plated in triplicate in 96-well plates with compounds dispensed at graded doses (Hewlett-Packard D300 Digital Dispenser). All wells were normalized to 0.25% DMSO. At 48 hours, cells were washed with 1×PBS and all supernatants removed. Total RNA was extracted using RNEasy 96 plates (Qiagen) and used to generate first-strand cDNA using XLT cDNA 5× Supermix (QuantaBio). cDNA was used as a template in a Taqman qPCR duplex reaction specific to DENV2 viral and GAPDH gene expression. EC50 values were determined using Prism Graphpad software, with normalization to a positive control and no compound negative control wells.

The test system of a further assay is HRV16. The assay is described as follows: HRV16 HeLa EC50 (cytopathic effect in H1-HeLa cells). The following applies: read-out: HRV16 HeLa EC50. In short, it runs like this:
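Read-out is luminescent cell viability (CellTiter-Glo) after 96 h of infection at 33 °C, scaled between uninfected and infected-untreated wells. Before infection with titrated virus, compounds went onto H1-HeLa cells as triplicate 3-fold dilution series.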

The subject of assay [2] is Dengue 2, New Guinea strain (NGC). The assay is described as follows: DENV moDC EC50 (qPCR in human monocyte-derived dendritic cells). The following applies: Dengue virus, Dendritic cell; Table 3; human moDCs, 48 hours. The procedure: Human monocyte-derived dendritic cells (moDCs) were derived from CD14+ monocytes (AllCells) cultured in Human Mo-DC Differentiation medium containing GM-CSF and IL-4 (Miltenyi Biotec). On day 7, moDCs were harvested by mechanical disruption, washed and suspended in serum-free RPMI. moDCs were infected with Vero-derived Dengue 2, New Guinea strain (NGC) at a MOI=0.1 for two hours in serum-free RPMI with gentle agitation at 37° C. Cells were washed and resuspended in 10% serum-containing RPMI (Gibco, supplemented with sodium pyruvate, NEAA, Penicillin-Streptomycin). […] were plated in triplicate in 96-well plates with compounds dispensed at graded doses (Hewlett-Packard D300 Digital Dispenser). All wells were normalized to 0.25% DMSO. At 48 hours, cells were washed with 1×PBS and all supernatants removed. Total RNA was extracted using RNEasy 96 plates (Qiagen) and used to generate first-strand cDNA using XLT cDNA 5× Supermix (QuantaBio). cDNA was used as a template in a Taqman qPCR duplex reaction specific to DENV2 viral and GAPDH gene expression. EC50 values were determined using Prism Graphpad software, with normalization to a positive control and no compound negative control wells.

The mark [3] stands for this setting: human respiratory syncytial virus, NHBE, 96 h, Table 3, NHBE cells, RSV A2, 4 days.
The mark [4] stands for this setting: human respiratory syncytial virus, HEp-2, 96 h.

Read-outs that look alike come from different tables or passages of the source.

Turning to `COC(=O)[C@H](C)N[P@](=O)(OC[C@@]1(C#N)O[C@@H](c2ccc3c(/N=C/N4CCN(C)CC4)ncnn23)[C@H](OC(=O)C(C)C)[C@@H]1OC(=O)C(C)C)Oc1ccccc1` [Example 261, (2R,3S,4S,5S)-2-cyano-2-((((S)-(((S)-1-methoxy-1-oxopropan-2-yl)amino)(phenoxy)phosphoryl)oxy)methyl)-5-(4-(((E)-(4-methylpiperazin-1-yl)methylene)amino)pyrrolo[2,1-f][1,2,4]triazin-7-yl)tetrahydrofuran-3,4-diyl bis(2-methylpropanoate)], the EC50 in the assay with DENV2 replicon (read-out: DENV-2 REP Huh7 EC50) came out at 2.34 µM; with RSV A2 (setting [3]), 0.013 µM; in the assay with HCV Rep 2A (Hepatitis C virus, 72 h, Table 4, replicon cells, 3 days, read-out: HCV Rep 2A EC50), 1.22 µM; in the assay on RSV strain A2 (setting [4]), 0.042 µM; with HCV Rep 1B (Hepatitis C virus, 72 h, Table 4, replicon cells, 3 days, read-out: HCV Rep 1B EC50), 0.524 µM.
As for `CC(C)C(=O)OC1C(c2ccc3c(N)ncnn23)OC(C#N)(COP(=O)(NC(C)C(=O)OC2CCN(C)C2)Oc2ccccc2)C1OC(=O)C(C)C` (single isomer, unassigned) [Example 234], the EC50 with RSV A2 (Table 3, NHBE cells, RSV A2, 4 days) is 0.03 µM; at HCV Rep 2A (Table 4, replicon cells, 3 days, read-out: HCV Rep 2A EC50), 1.82 µM; with RSV strain A2 it was 0.057 µM; at HCV Rep 1B (Table 4, replicon cells, 3 days, read-out: HCV Rep 1B EC50), 0.905 µM.
On to `COC(=O)[C@H](C)N[P@](=O)(OC[C@@]1(C#N)O[C@@H](c2ccc3c(N)ncnn23)[C@H](O)[C@@H]1O)Oc1ccccc1` [Example 52, methyl ((S)-(((2R,3S,4R,5S)-5-(4-aminopyrrolo[2,1-f][1,2,4]triazin-7-yl)-2-cyano-3,4-dihydroxytetrahydrofuran-2-yl)methoxy)(phenoxy)phosphoryl)-L-alaninate], for which the EC50 in assay [1] was found to be 5.48 µM; in the assay on RSV A2 (human respiratory syncytial virus, NHBE, Table 5 comparative activity, 2',3'-OH vs -OC(O)iPr), 0.252 µM; in the assay with HCV Rep 2A (Hepatitis C virus, Table 5 comparative activity, 2',3'-OH vs -OC(O)iPr, read-out: HCV Rep2A EC50), 7.46 µM; in the assay with HRV16 (HeLa, Table 5 comparative activity, 2',3'-OH vs -OC(O)iPr), 1.25 µM; with HCV Rep 1B (Hepatitis C virus, Table 5 comparative activity, 2',3'-OH vs -OC(O)iPr, read-out: HCV Rep1B EC50), 3.96 µM.
For the compound `CCC(=O)O[C@H]1[C@H](c2ccc3c(N)ncnn23)O[C@](C#N)(COP(=O)(N[C@@H](C)C(=O)OCC2CCC2)N[C@@H](C)C(=O)OCC2CCC2)[C@H]1OC(=O)CC` [Example 125, ((2R,3S,4R,5S)-5-(4-aminopyrrolo[2,1-f][1,2,4]triazin-7-yl)-2-cyano-3,4-dipropionatetetrahydrofuran-2-yl)methyl bis-cyclobutylmethyl L-alaninate phosphate], the EC50 in the assay on DENV2 replicon (read-out: DENV-2 REP Huh7 EC50, Table 3, Huh-7 DENV2 replicon cells, 48 hours) was 48.7 µM; in the assay on RSV A2 (setting [3]), 0.079 µM; in the assay on HRV16 (96 h, Table 3, H1-HeLa cells, 96 h), 2.03 µM; in the assay with RSV strain A2 (setting [4]), 0.7 µM; in assay [2], 20.7 µM.

The values above are taken from patent US12264173B2 (GILEAD SCIENCES, INC., priority 2020, dated 2025).
